Laboratory results taken from PubChem BioAssay (NCI).
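Dose response: 5 concentrations. Exposure: 48 h. Format: 96-well plates. Endpoint: linear interpolation; highest concentration if not reached. GI50: concentration for 50% inhibition of growth. TGI marks complete inhibition of growth.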

Tests used:
Experiment in all cases: growth of human tumour cells (NCI), 48 h
[1] = test system: HOP-18 NSCLC
[2] = test system: DMS 273 small cell lung
[3] = test system: DMS 114 small cell lung
[4] = test system: 786-0 renal
[5] = test system: LXFL 529 NSCLC
[6] = test system: M19-MEL melanoma
[7] = test system: SNB-78 CNS
[8] = test system: KM20L2 colon
[9] = test system: DLD-1 colon
[10] = test system: HOP-92 NSCLC
[11] = test system: XF 498 CNS

| Compound | TGI [4] [µM] | TGI [10] [µM] | further results |
| --- | --- | --- | --- |
| CC(=O)Nc1ccc(-c2nnc(SCC(=O)Nc3ccccc3Cl)o2)cc1 | > 100 | – | TGI [1]: > 100 µM; TGI [2]: > 100 µM; TGI [3]: > 100 µM; TGI [5]: > 100 µM; TGI [6]: > 100 µM; TGI [7]: > 100 µM; TGI [8]: > 100 µM; TGI [9]: > 100 µM |
| C1CSCC2(COC2)CS1 | – | > 100 | – |
| CN(C)c1ccc(C(C#N)N2CCCN(C(C#N)c3ccc(N(C)C)cc3)C2c2ccc(N(C)C)cc2)cc1 (stereo unspecified) | > 100 | > 100 | – |
| O=C(CNC(=O)OCc1ccccc1)NCCCCC(NC(=O)OCc1ccccc1)C(=O)O (stereo unspecified) | > 100 | > 100 | – |
| CC(=O)c1c2c(cc3c1CC1(Cc4cc5c(cc4C1)CCC5)C3)CCC2 | > 100 | > 100 | – |
| CC(C#N)Nc1ccc(Oc2ccc(C(C)(C)c3ccc(Oc4ccc(NC(C)C#N)cc4)cc3)cc2)cc1 (stereo unspecified) | > 100 | > 100 | – |
| COc1ccc(/C=C2/C(=O)N(C(=O)c3ccc(Cl)cc3)N=C2C)cc1OC | > 100 | > 100 | TGI [3]: > 100 µM; TGI [5]: > 100 µM; TGI [6]: > 100 µM; TGI [7]: > 100 µM; TGI [8]: > 100 µM; TGI [9]: > 100 µM; TGI [11]: > 100 µM |
| CC(=NNC(=S)Nc1ccccc1C)c1cccc(C(C)=NNC(=S)Nc2ccccc2C)n1 | > 100 | > 100 | – |
| CCOc1ccc(C2c3[nH]c4ccccc4c3CCN2C(=O)c2cccs2)cc1 (stereo unspecified) | > 100 | > 100 | – |
| O=C(O)Cc1cc(=O)oc2cc(O)c(Cl)cc12 | > 100 | > 100 | TGI [1]: > 100 µM; TGI [2]: > 100 µM; TGI [3]: > 100 µM; TGI [5]: > 100 µM; TGI [6]: > 100 µM; TGI [8]: > 100 µM; TGI [9]: > 100 µM; TGI [11]: > 100 µM |
| CN1CC=C(OP(=O)(NCc2ccccc2)N(CCCl)CCCl)CC1 (stereo unspecified) | > 100 | > 100 | – |
| COC(=O)/C=C/c1cc(OC)c2c(c1)C(C(=O)OC)C(c1ccc(OC)c(OC)c1)O2 (stereo unspecified) | > 100 | > 100 | – |
| CSc1nc(C)cc(Nc2ccc(O)c(CN3CCCCC3)c2)n1 | 49.1 | > 100 | – |
| O=C(/C=C/c1ccc(O)c(O)c1)NC(CO)C(=O)O (stereo unspecified) | > 100 | > 100 | – |
| Clc1cc(Cl)cc(N2N=C(c3cccc(Nc4ccncc4)c3)CC2c2ccccc2)c1 (stereo unspecified) | – | 3.07 | GI50 [10]: 1.49 µM |
| CCn1c(=O)c2c(=O)[nH][nH]c2c2ccccc21 | > 100 | > 100 | – |
| Cc1c(-c2ccccc2)c(-c2ccc(OCCN(C)C)cc2)n2ccccc12 | 20.9 | 24.6 | – |
| Cc1ccc2c(c1)C(C1Cc3c(C)cccc3C1=O)OC2=O (stereo unspecified) | > 100 | > 100 | – |
| COc1ccc2c(OC)c3ccoc3nc2c1O | > 100 | – | TGI [1]: > 100 µM; TGI [3]: > 100 µM; TGI [5]: > 100 µM; TGI [6]: > 100 µM; TGI [7]: > 100 µM; TGI [8]: > 100 µM; TGI [9]: > 100 µM; TGI [11]: > 100 µM |
